Literature values, collected in patent US20170265459A1, “PROPAGULE COATINGS” (E I DU PONT DE NEMOURS AND COMPANY, priority 2014, published 2017).

Row | Compound | water solubility at 20° C.
1 | CNC(=O)c1cc(Cl)cc(C)c1NC(=O)c1cc(Br)nn1-c1ncccc1Cl [Chlorantraniliprole, chlorantraniliprole] | about 1 milligram per liter
2 | CNC(=O)c1cc(C#N)cc(C)c1NC(=O)c1cc(Br)nn1-c1ncccc1Cl [Cyantraniliprole, cyantraniliprole] | about 14.2 milligram per liter
